This assay addresses neutrophil elastase (Homo sapiens (Human), UniProt P08246). Kind of assay: Human Neutrophil Elastase Assay. The format is biochemical. Particulars: substrate MeOSuc-Ala-Ala-Pro-Val-AMC. As to the method: Human Neutrophil Elastase Assay
All other materials were of the highest grade commercially available.
The following buffers were used: Compound buffer: 100 mM Tris, 500 mM NaCl, adjusted to pH 7.5; Assay buffer: 100 mM Tris, 500 mM NaCl, adjusted to pH 7.5, containing 0.01% BSA.
Assay conditions: Test compounds were prediluted in DMSO and subsequently in compound buffer (5% DMSO final). […] After inactivation of the enzyme, fluorescence intensities were measured at 380 nm excitation and 460 nm emission wavelengths.
Each plate contains wells with a high value control (DMSO+enzyme+substrate) and wells with a low value control (DMSO+inactivated enzyme+substrate). IC50 values were estimated using a sigmoidal concentration response curve with variable slope. Means of low values were taken as 0%, means of high values as 100%.
Sequence of neutrophil elastase (P08246 30-247): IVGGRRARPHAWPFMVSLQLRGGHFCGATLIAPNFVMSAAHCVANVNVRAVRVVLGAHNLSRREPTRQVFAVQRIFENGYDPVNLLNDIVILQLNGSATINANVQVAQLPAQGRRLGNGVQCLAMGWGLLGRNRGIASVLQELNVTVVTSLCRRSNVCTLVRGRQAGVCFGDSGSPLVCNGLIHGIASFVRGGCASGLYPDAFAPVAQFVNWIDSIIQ
As for `CC(=O)C1=C(C)N(c2cccc(C(F)(F)F)c2)C(=O)N(C)C1c1ccc(C#N)cc1C(=O)O` (stereo not shown) [Intermediate 6, 2-[5-Acetyl-3,6-dimethyl-2-oxo-1-(3-trifluoromethyl-phenyl)-1,2,3,4-tetrahydro-pyrimidin-4-yl]-5-cyano-benzoic acid], the IC50 (commonly the concentration at which inhibition is half-maximal) amounted to 3.93 nM. Turning to `CC(=O)C1=C(C)N(c2cccc(C(F)(F)F)c2)C(=O)N(C)C1c1ccc(C#N)cc1C(=O)NCc1ccc(C#N)o1` (stereo not shown) [Example 1.67], the IC50 was 1.3 nM. Under `CCOC(=O)C1=C(C)N(c2cccc(C(F)(F)F)c2)C(=O)N(C)C1c1ccc(C#N)cc1C(=O)N[C@H]1C[C@H]1N` (stereo partly shown) [Example 4.6] stands less than 1 nM; under `CCOC(=O)C1=C(C)N(c2cccc(C(F)(F)F)c2)C(=O)N(C)C1c1ccc(C#N)cc1C(=O)N(C)CCN(C)C` (stereo not shown) [Example 3.36], less than 1 nM; under `CCOC(=O)C1=C(C)N(c2cccc(C(F)(F)F)c2)C(=O)N(C)C1c1ccc(C#N)cc1C(=O)N1CC[C@H](NC)C1` (stereo partly shown) [Example 4.16], less than 1 nM. In the case of `CC(=O)C1=C(C)N(c2cccc(C(F)(F)F)c2)C(=O)N(C)C1c1ccc(C#N)cc1C(=O)N1Cc2cnn(C)c2C1` (stereo not shown) [Example 1.71], the IC50 is less than 1 nM. As to `CCOC(=O)C1=C(C)N(c2cccc(C(F)(F)F)c2)C(=O)N(C)C1c1ccc(C#N)cc1C(=O)NCCF` (stereo not shown) [Example 3.11], the IC50 was less than 1 nM. Turning to `CC(=O)C1=C(C)N(c2cccc(C(F)(F)F)c2)C(=O)N(C)C1c1ccc(C#N)cc1C(=O)N1CC(O)C1` (stereo not shown) [Example 1.12], the IC50 was less than 1 nM. `CCOC(=O)C1=C(C)N(c2cccc(C(F)(F)F)c2)C(=O)N(C)C1c1ccc(C#N)cc1C(=O)N1CC[C@H](N(C)C)C1` (stereo partly shown) [Example 3.38] had an IC50 of 1 nM. As to `CC(=O)C1=C(C)N(c2cccc(C(F)(F)F)c2)C(=O)N(C)C1c1ccc(C#N)cc1C(=O)N(C)CCN(C)C` (stereo not shown) [Example 1.44], the IC50 was less than 1 nM. Regarding `CCOC(=O)C1=C(C)N(c2cccc(C(F)(F)F)c2)C(=O)N(C)C1c1ccc(C#N)cc1C(=O)N1C[C@H]2C[C@@H]1CN2` (stereo partly shown) [Example 4.1], it took 2.4 nM to reach half-maximal inhibition (IC50). As for `CCOC(=O)C1=C(C)N(c2cccc(C(F)(F)F)c2)C(=O)N(C)C1c1ccc(C#N)cc1C(=O)N(C)CCCOC` (stereo not shown) [Example 3.30], it took 1.1 nM to reach half-maximal inhibition (IC50). Turning to `CC(=O)C1=C(C)N(c2cccc(C(F)(F)F)c2)C(=O)N(C)C1c1ccc(C#N)cc1C(=O)NCc1ccn(C)n1` (stereo not shown) [Example 1.55], the IC50 was less than 1 nM. Regarding `COC(=O)c1cc(C#N)ccc1C1C(C(C)=O)=C(C)N(c2cccc(C(F)(F)F)c2)C(=O)N1C` (stereo not shown) [Intermediate 5, 2-[5-Acetyl-3,6-dimethyl-2-oxo-1-(3-trifluoromethyl-phenyl)-1,2,3,4-tetrahydro-pyrimidin-4-yl]-5-cyano-benzoic acid methyl ester], the IC50 was less than 1 nM. As to `CC(=O)C1=C(C)N(c2cccc(C(F)(F)F)c2)C(=O)NC1c1ccc(C#N)cc1-c1ccoc1` (stereo not shown) [Example 11, 4-[5-Acetyl-6-methyl-2-oxo-1-(3-trifluoromethyl-phenyl)-1,2,3,4-tetrahydro-pyrimidin-4-yl]-3-furan-3-yl-benzonitrile], the IC50 turned out to be 4.6 nM. Turning to `CCOC(=O)C1=C(C)N(c2cccc(C(F)(F)F)c2)C(=O)N(C)C1c1ccc(C#N)cc1C(=O)NCC(C)(C)O` (stereo not shown) [Example 3.23], the 50% inhibitory concentration (IC50) came out at 1.3 nM. The compound `CC(=O)C1=C(C)N(c2cccc(C(F)(F)F)c2)C(=O)N(C)C1c1ccc(C#N)cc1C(=O)NCCCO` (stereo not shown) [Example 1.16] came in with an IC50 of less than 1 nM. For the compound `CC(=O)C1=C(C)N(c2cccc(C(F)(F)F)c2)C(=O)N(C)C1c1ccc(C#N)cc1C(=O)NCC(F)(F)F` (stereo not shown) [Example 1.23], the IC50 was less than 1 nM. Compound `CC(=O)C1=C(C)N(c2cccc(C(F)(F)F)c2)C(=O)N(C)C1c1ccc(C#N)cc1C1=CCOCC1` (stereo not shown) [Example 5.7] had an IC50 of less than 1 nM. `C#CCNC(=O)c1cc(C#N)ccc1C1C(C(C)=O)=C(C)N(c2cccc(C(F)(F)F)c2)C(=O)N1C` (stereo not shown) [Example 1.5] yielded an IC50 of less than 1 nM. Under `CC(=O)C1=C(C)N(c2cccc(C(F)(F)F)c2)C(=O)N(C)C1c1ccc(C#N)cc1C(=O)N1CCCC1` (stereo not shown) [Example 1.11] stands less than 1 nM.

Turning to `CC(=O)C1=C(C)N(c2cccc(C(F)(F)F)c2)C(=O)N(C)C1c1ccc(C#N)cc1C(=O)NC12CC(C1)C2` (stereo not shown) [Example 1.18], the IC50 is 1 nM. Compound `CC(=O)C1=C(C)N(c2cccc(C(F)(F)F)c2)C(=O)N(C)C1c1ccc(C#N)cc1C(=O)NC1COC1` (stereo not shown) [Example 1.13] showed an IC50 of less than 1 nM. Compound `CC(=O)C1=C(C)N(c2cccc(C(F)(F)F)c2)C(=O)N(C)C1c1ccc(C#N)cc1-c1cnco1` (stereo not shown) [Example 5.8] returned an IC50 of less than 1 nM. The compound `CCOC(=O)C1=C(C)N(c2cccc(C(F)(F)F)c2)C(=O)N(C)C1c1ccc(C#N)cc1C(=O)N1CCCC1` (stereo not shown) [Example 3.12] showed an IC50 of less than 1 nM. For `CC(=O)C1=C(C)N(c2cccc(C(F)(F)F)c2)C(=O)N(C)C1c1ccc(C#N)cc1C(=O)NCc1ccccn1` (stereo not shown) [Example 1.46], the IC50 was less than 1 nM. For the compound `CCOC(=O)C1=C(C)N(c2cccc(C(F)(F)F)c2)C(=O)N(C)C1c1ccc(C#N)cc1C(=O)N1CCN2CCCC2C1` (stereo not shown) [Example 3.43], the midpoint of inhibition, the IC50, lay at 2.8 nM.

The compound `CC(=O)C1=C(C)N(c2cccc(C(F)(F)F)c2)C(=O)N(C)C1c1ccc(C#N)cc1C(=O)N1CCc2nocc2C1` (stereo not shown) [Example 1.72] returned an IC50 of 2.8 nM. Turning to `CCOC(=O)C1=C(C)N(c2cccc(C(F)(F)F)c2)C(=O)N(C)C1c1ccc(C#N)cc1C(=O)NC` (stereo not shown) [Example 3.4], the IC50 stood at 3 nM.

In the case of `CC(=O)C1=C(C)N(c2cccc(C(F)(F)F)c2)C(=O)N(C)C1c1ccc(C#N)cc1C(=O)NC1CCOC1` (stereo not shown) [Example 1.19], the concentration for half-maximal inhibition (IC50) was less than 1 nM. `CCOC(=O)C1=C(C)N(c2cccc(C(F)(F)F)c2)C(=O)N(C)C1c1ccc(C#N)cc1C(=O)N1CC(O)C1` (stereo not shown) [Example 3.13] gave an IC50 of less than 1 nM. On to `CC(=O)C1=C(C)N(c2cccc(C(F)(F)F)c2)C(=O)N(C)C1c1ccc(C#N)cc1C(=O)N(C)Cc1ccncc1` (stereo not shown) [Example 1.68], for which the IC50 is less than 1 nM. Regarding `CC(=O)C1=C(C)N(c2cccc(C(F)(F)F)c2)C(=O)N(C)C1c1ccc(C#N)cc1-c1cccnc1` (stereo not shown) [Example 5.9], inhibition was half-maximal at 1.4 nM (IC50). Turning to `CCOC(=O)C1=C(C)N(c2cccc(C(F)(F)F)c2)C(=O)N(C)C1c1ccc(C#N)cc1C(=O)N1CC[C@H](N)C1` (stereo partly shown) [Example 4.13], the IC50 is less than 1 nM. In turn, `CCOC(=O)C1=C(C)N(c2cccc(C(F)(F)F)c2)C(=O)N(C)C1c1ccc(C#N)cc1-c1cn[nH]c1` (stereo not shown) [Example 14.2] gave an IC50 of 1.9 nM. The compound `CC(=O)C1=C(C)N(c2cccc(C(F)(F)F)c2)C(=O)N(C)C1c1ccc(C#N)cc1C(=O)NC1CCN(C)C1` (stereo not shown) [Example 1.43] displayed an IC50 of less than 1 nM.

Compound `CCOC(=O)C1=C(C)N(c2cccc(C(F)(F)F)c2)C(=O)N(C)C1c1ccc(C#N)cc1C(=O)N1CCC(O)CC1` (stereo not shown) [Example 3.27] had an IC50 of 2.2 nM. `CC(=O)C1=C(C)N(c2cccc(C(F)(F)F)c2)C(=O)N(C)C1c1ccc(C#N)cc1C(=O)NCc1cnoc1` (stereo not shown) [Example 1.39] had an IC50 of less than 1 nM. Consider `CC(=O)C1=C(C)N(c2cccc(C(F)(F)F)c2)C(=O)N(C)C1c1ccc(C#N)cc1C(=O)NCc1ccno1` (stereo not shown) [Example 1.38], for which the IC50 was less than 1 nM. In the case of `CC(=O)C1=C(C)N(c2cccc(C(F)(F)F)c2)C(=O)N(C)C1c1ccc(C#N)cc1C(=O)N1CCN(C(C)C)CC1` (stereo not shown) [Example 1.82], the midpoint of inhibition, the IC50, lay at 2.7 nM. The result for `CCOC(=O)C1=C(C)N(c2cccc(C(F)(F)F)c2)C(=O)N(C)C1c1ccc(C#N)cc1C(=O)N1CCC(N)CC1` (stereo not shown) [Example 4.3] reads 4.8 nM. Under `CN[C@H]1CCN(C(=O)c2cc(C#N)ccc2C2C(C(C)=O)=C(C)N(c3cccc(C(F)(F)F)c3)C(=O)N2C)C1` (stereo partly shown) [Example 2.16] stands 1.2 nM; under `CCOC(=O)C1=C(C)N(c2cccc(C(F)(F)F)c2)C(=O)N(C)C1c1ccc(C#N)cc1-c1ccnn1C` (stereo not shown) [Example 14.6], 3.1 nM. In turn, `CCOC(=O)C1=C(C)N(c2cccc(C(F)(F)F)c2)C(=O)N(C)C1c1ccc(C#N)cc1C(=O)NC1CCC(O)C1` (stereo not shown) [Example 3.28] gave an IC50 of 1.3 nM. Compound `CC(=O)C1=C(C)N(c2cccc(C(F)(F)F)c2)C(=O)N(C)C1c1ccc(C#N)cc1C(=O)NCc1ccon1` (stereo not shown) [Example 1.41] returned an IC50 of less than 1 nM.

Compound `CC(=O)C1=C(C)N(c2cccc(C(F)(F)F)c2)C(=O)N(C)C1c1ccc(C#N)cc1C(=O)N1CCC1` (stereo not shown) [Example 1.7] returned a half-inhibitory concentration (IC50) of less than 1 nM. For `CCOC(=O)C1=C(C)N(c2cccc(C(F)(F)F)c2)C(=O)N(C)C1c1ccc(C#N)cc1C(=O)NCCO` (stereo not shown) [Example 3.10], it took 3 nM to reach half-maximal inhibition (IC50). The compound `CCOC(=O)C1=C(C)N(c2cccc(C(F)(F)F)c2)C(=O)N(C)C1c1ccc(C#N)cc1C(=O)N1CCN2CCOCC2C1` (stereo not shown) [Example 3.46] returned an IC50 of 3.8 nM. Regarding `CC(=O)C1=C(C)N(c2cccc(C(F)(F)F)c2)C(=O)N(C)C1c1ccc(C#N)cc1-c1nc(C)no1` (stereo not shown) [Example 9, 4-[5-Acetyl-3,6-dimethyl-2-oxo-1-(3-trifluoromethyl-phenyl)-1,2,3,4-tetrahydro-pyrimidin-4-yl]-3-(5-methyl-[1,3,4]oxadiazol-2-yl)-], the IC50 was less than 1 nM. The result for `CC(=O)C1=C(C)N(c2cccc(C(F)(F)F)c2)C(=O)N(C)C1c1ccc(C#N)cc1-c1ccc(=O)n(C)c1` (stereo not shown) [Example 5.11] reads less than 1 nM. The result for `CCOC(=O)C1=C(C)N(c2cccc(C(F)(F)F)c2)C(=O)N(C)C1c1ccc(C#N)cc1C(=O)N[C@@H]1C[C@H]1N` (stereo partly shown) [Example 4.7] reads less than 1 nM. As for `CCOC(=O)C1=C(C)N(c2cccc(C(F)(F)F)c2)C(=O)N(C)C1c1ccc(C#N)cc1C(=O)N(C)CCOC` (stereo not shown) [Example 3.24], the IC50 turned out to be 1 nM.

These data come from US9290457B2, “Substituted dihydropyrimidinones and their use as inhibitors of neutrophil elastase activity” (Boehringer Ingelheim International GmbH, priority 2014, dated 2016).
